Values after ≈ are worked out from the molar mass of the structure shown. Where two headings read alike, the source gives them in different places. One block for each molecule: values may come before it.
What was measured:
[1] = tested on: phospho-Tau (Ser199) in SH-SY5Y cells; experiment: Tau phosphorylation (Ser199) ELISA in SH-SY5Y cells; assay type: cell-based, human; conditions: Homo sapiens, SH-SY5Y, read-out: p-Tau (μM)
Method: Tau Phosphorylation and Total Tau Assay
SH-SY5Y cells were maintained in DMEM supplemented with 10% heat-inactivated FBS and 1% penicillin-streptomycin (Invitrogen) unless otherwise stated. ELISA kits for phospho-Tau (Ser199) and total Tau detection were purchased from Invitrogen (KHB0041, and KHB7041 respectively). Briefly, SH-SY5Y cells were seeded at 50,000 cells/200 μL/well in 96 well plates and after overnight incubation, treated with various doses of chemical compounds at 0.2 μL/well. The next day cells were washed with PBS twice before being lysed in 100 μL Lysis buffer/well. […]
A standard protocol using an immunoassay kit to quantify total Tau protein and phospho-Tau (Ser199) protein in SH-SY5Y human neuroblastoma cells was employed. […]
Well strips were warmed and inserted into the frame. […] Samples were loaded to each well that would be analyzed for total Tau, 85 μl standard diluent buffer and 15 μl cell lysate were added. To each well that will be analyzed for pTau (Ser199) 50 μl standard diluent buffer+50 μl cell lysate were added. […] Anti-total Tau was added to wells being analyzed for total Tau, anti-pTau (Ser199) was added to wells being analyzed for pTau (Ser199), and plates were tapped gently on the side to mix. […] Absorbance of each well was read at 450 nm (within 2 hours of adding stop solution).

[2] = tested on: β-catenin nuclear translocation in U2-OS cells; experiment: β-Catenin nuclear localization assay; assay type: cell-based
Method: β-Catenin Nuclear Localization Assay
U2-OS cells stably expressing two complimentary β-galactosidase fragments (one part on β-Catenin and the other constitutively expressed in the cell nucleus) were maintained in DMEM F12 supplemented with 10% FBS. When β-catenin translocates to the nucleus, the complimentary fragments form a complete β-galactosidase, the amount of which is then quantified by β-galactosidase activity (DiscoveRx). Cells were seeded in a 384-well CulturPlate (Perkin Elmer, Boston, Mass.) with 10,000 per well in 20 μL DMEM F12 containing 10% FCS, 100 U/ml penicillin and 100 μg/mL streptomycin. After overnight incubation at 37° C., cells were stimulated with 100 mL test compound/well and then returned to the incubator for 6 h. Cells were disrupted using 12 μL substrate-containing lysis buffer from the PathHunter Detection Kit in the formulation specified by the supplier (DiscoveRx). Plates were incubated in the dark for 1 h at room temperature before measurement of P3-galactosidase activity (luminescence) on an EnVision plate reader (PerkinElmer, Waltham, Mass.).

CDK2/CycA2 = CDK2/CycA2 (Homo sapiens (Human), UniProt P24941); experiment: Carna Biosciences kinase assay, CDK2/CycA2; assay type: biochemical; conditions: read-out: % Inhibition at 10 μM, CDK2/CycA2
Method: (§1) Briefly, a selection of compounds was screened against a panel of kinases at a single concentration of 10 μM. […] This was completed utilizing one of two assays depending on the kinase being examined.
(§2) Test compounds were dissolved in and diluted with dimethylsulfoxide (DMSO) to generate a 100× sample solution. These were then diluted to 4× sample solutions in assay buffer to make the final test compound solutions. Reference compounds for assay control were prepared similarly.
(§3) A solution of IMAP binding reagent (IMAP Screening Express kit; Molecular Devices) (60 μL) was added to each well and incubated for 30 minutes.
(§4) A solution of termination buffer (QuickScout Screening assist MSA; Carna Biosciences) (60 μL) was added to each well. The entire reaction mixture was then applied to a LabChip3000 system (Caliper Life Science) and the product and substrate peptide peaks were separated and quantified.
(§5) The assay utilized was identical to that of the single point inhibitory activity determination (MSA) but run in dose response. […] A solution of termination buffer (QuickScout Screening assist MSA; Carna Biosciences) (60 μL) was added to each well. The entire reaction mixture was then applied to a LabChip3000 system (Caliper Life Science) and the product and substrate peptide peaks were separated and quantified.

CDK2/CycE1 = CDK2/CycE1 (Homo sapiens (Human), UniProt P24941); experiment: Carna Biosciences kinase assay, CDK2/CycE1; assay type: biochemical; conditions: read-out: % Inhibition at 10 μM, CDK2/CycE1
Method: as §1, §2, §3, §4, §5

panel of 311 kinases = experiment: Kinome-wide selectivity profile (Carna Biosciences, 311 kinases); assay type: biochemical
Method: as §1, §2, §3, §4

[3] = Plasma protein binding (equilibrium dialysis), human plasma; assay type: in vitro ADME
Method: Plasma protein binding was determined by equilibrium dialysis using the Rapid Equilibrium Dialysis (RED) device (Pierce Biotechnology, Rockford, Ill.) for both human and mouse plasma. Each compound was prepared in duplicate at 5 μM in plasma (0.95% acetonitrile, 0.05% DMSO) and added to one side of the membrane (200 μl) with PBS pH 7.4 added to the other side (350 μl). Compounds were incubated at 37° C. for 5 hours with a 250 rpm orbital shake.

GSH stability = assay type: physicochemical; conditions: 48 hours
Method: Stability was determined in the presence of PBS pH […] and 50 μM glutathione with 0.1% DMSO. Each compound was prepared in duplicate on six separate plates and allowed to equilibrate at room temperature with a 250 rpm orbital shake for 48 hours. One plate was removed at each time point (0, 2, 4, 8, 24, and 48 hours). […] Additionally, to the remaining material at each time point, acetonitrile was added to force dissolution of compound (to test for recovery of compound). An aliquot of this was also analyzed by UPLC-MS.

PBS stability = assay type: physicochemical; conditions: 48 hours of incubation, acetonitrile recovery
Method: Stability was determined in the presence of PBS pH 7.4 with 0.1% DMSO. Each compound was prepared in duplicate on six separate plates and allowed to equilibrate at room temperature with a 250 rpm orbital shake for 48 hours. One plate was removed at each time point (0, 2, 4, 8, 24, and 48 hours). […] Additionally, to the remaining material at each time point, acetonitrile was added to force dissolution of compound (to test for recovery of compound). An aliquot of this was also analyzed by UPLC-MS.

GSK3β [4] = target: T1, GSK3β (Homo sapiens (Human), UniProt P49841); conditions: read-out: IC50 ADP Glo GSK3β
Method: (§6) Human GSK3β as a GST fusion expressed in baculoviral system was purchased from BPS Bioscience (San Diego, Calif.). […] Reactions were incubated at room temperature for 60 minutes. 2.5 μL/well of ADP-Glo (Promega, V9103) was added with BioRAPTR, and incubated at room temperature for 40 minutes followed by addition of 5 μL/well of ADP-Glo detection reagent (Promega, V9103) with Combi nL (Thermo, Waltham, Mass.) and incubation at room temperature for 30 minutes. The plates were read on a ViewLux (PerkinElmer, Waltham, Mass.) for luminescence. Data were scaled using the positive and neutral controls and fitted for IC50 as described below.
(§7) 100 mL/well compounds were pinned. […] Incubated at room temperature for 60 minutes. Added 20 μL/well of ADP-glo (Promega, V9103) with Combi, and incubated at room temperature for 40 minutes. Added 40 μL/well of ADP-glo (Promega, V9103) with Combi, incubated at room temperature for 30 minutes. Read on Envision for luminescence.

GSK3α [5] = target: T2, GSK3α (Homo sapiens (Human), UniProt P49840)
GSK3β [6] = target: T1, GSK3β
Method: GSK3β Microfluidic Mobility-Shift Assay
Reactions were terminated by the addition of 10 mM EDTA. Substrate and product were separated electrophoretically and fluorescence intensity of the substrate and product was determined by Labchip EZ Reader II (Caliper Life Sciences, MA). The kinase activity was measured as percent conversion. The reactions were performed in duplicate for each sample. […] The results were analyzed by Genedata Assay Analyzer. The percent inhibition was plotted against the compound concentration and the IC50 value was determined from the logistic dose-response curve fitting.

[7] = tested on: TCF/LEF reporter in HEK293-pBARL cells; conditions: read-out: TCF/LEF EC50
Method: (§8) HEK293-pBARL cells were derived from HEK293 cells and they stably expressed a firefly-luciferase reporter gene driven by a promoter containing 12 copies of TCF/LEF binding sequences. These cells were maintained in DMEM and supplemented with 10% FBS and 1% penicillin-streptomycin (Invitrogen). Reporter gene assays were conducted in anti-biotic free media. […] These cells also contained a renilla-luciferase reporter gene driven by the ubiquitous EF1α promoter as a control. HEK293-pBarl reporter cell lines were seeded into 384-well culture plates (Corning) at 6000 cells/well. 24 hours after plating, cells were treated overnight with relevant compounds and assayed using DualGlo assay kit (Promega). Luminescent intensities were read by EnVision (PerkinElmer, Waltham, Mass.). Firefly luciferase intensity is normalized by renilla luciferase intensity.
(§9) Cells were cultured in 384 well plates to appropriate density (40 μl total plating volume). 24 hours after plating, cells were treated with 100 nl compounds. 24 hours after incubation with compounds (48 hours after plating), assay reagents were prepared by mixing Luciferase Assay solution with Luciferase substrate and Stop & Glo solution to Stop & Glo substrate (extra reagents can be aliquoted and frozen for future use and are stable for at least one freeze/thaw cycle). […] The plate was spun down and 10 minutes were allowed for signal stabilization. Luciferase signal on the Perkin Elmer EnVision using the following parameters: Distance between plate & detector (mm)=0.2; Measurement time(s)=0.1; Glow (CT2) correction factor=0. Once the initial data is secure, a volume of Stop & Glo was added equal to each well equal to the volume of Luciferase reagent added above (If 10 μl Luciferase Reagent was added, 10 μl Stop & Glo was also added). The plate was spun down and 10 minutes were allowed for signal stabilization. The plate was read on the EnVision using the same parameters detailed above.

[8] = mouse plasma, 5 hours
Method: Plasma stability was determined at 37° C. at 5 hours in both human and mouse plasma. […] Compounds were incubated at 37° C. for 5 hours with a 250 rpm orbital shake with time points taken at 0 and 5 hours.

[9] = M (mouse)
[10] = tested on: TCF/LEF reporter in HEK293-pBARL cells; experiment: cells
Method: as §8, §9

physchem = conditions: phosphate buffered saline (PBS) with 1% DMSO, 23 °C, pH 7.4, aqueous buffer, kinetic from dmso stock
in vitro = conditions: mouse, mouse plasma, pH 7.4
Method: Plasma protein binding was determined by equilibrium dialysis using the Rapid Equilibrium Dialysis (RED) device (Pierce Biotechnology, Rockford, Ill.) for both human and mouse plasma. […] Compounds were incubated at 37° C. for 5 hours with a 250 rpm orbital shake.

GSK3β [11] = target: T1, GSK3β; experiment: biochemical
Method: as §6, §7

GSK3α [12] = target: T2, GSK3α; experiment: biochemical
GSK3β [13] = target: T1, GSK3β; experiment: biochemical; remark: listed apart in the source
SH-SY5Y cells = experiment: Cellular toxicity in SH-SY5Y cells; conditions: highest testing concentration of 30 μM
Method: Biochemical characterization of these synthesized compounds were assayed against GSK3β and CDK5/p25, with CDK5/p25 serving as a counter target of GSK3β selectivity. […] The effects of these compounds on survival of SH-SY5Y pathophysiology cells were also monitored.

CDK5 = CDK5 (Homo sapiens (Human), UniProt Q00535); experiment: Carna Biosciences kinase assay, CDK5; assay type: biochemical; conditions: 10 μM
Method: as §1, §2, §3, §4, §5

CDK9 = CDK9 (Homo sapiens (Human), UniProt P50750); experiment: Carna Biosciences kinase assay, CDK9; assay type: biochemical
Method: as §1, §2, §3, §4

Erk5 = Erk5 (Homo sapiens (Human), UniProt Q13164); experiment: Carna Biosciences kinase assay, Erk5; assay type: biochemical
Method: as §1, §2, §3, §4

LIMK1 = LIMK1 (Homo sapiens (Human), UniProt P53667); experiment: Carna Biosciences kinase assay, LIMK1; assay type: biochemical
Method: as §1, §2, §3, §4

PLK1 = PLK1 (Homo sapiens (Human), UniProt P53350); experiment: Carna Biosciences kinase assay, PLK1; assay type: biochemical
PLK1, sequence (P53350 whole entry): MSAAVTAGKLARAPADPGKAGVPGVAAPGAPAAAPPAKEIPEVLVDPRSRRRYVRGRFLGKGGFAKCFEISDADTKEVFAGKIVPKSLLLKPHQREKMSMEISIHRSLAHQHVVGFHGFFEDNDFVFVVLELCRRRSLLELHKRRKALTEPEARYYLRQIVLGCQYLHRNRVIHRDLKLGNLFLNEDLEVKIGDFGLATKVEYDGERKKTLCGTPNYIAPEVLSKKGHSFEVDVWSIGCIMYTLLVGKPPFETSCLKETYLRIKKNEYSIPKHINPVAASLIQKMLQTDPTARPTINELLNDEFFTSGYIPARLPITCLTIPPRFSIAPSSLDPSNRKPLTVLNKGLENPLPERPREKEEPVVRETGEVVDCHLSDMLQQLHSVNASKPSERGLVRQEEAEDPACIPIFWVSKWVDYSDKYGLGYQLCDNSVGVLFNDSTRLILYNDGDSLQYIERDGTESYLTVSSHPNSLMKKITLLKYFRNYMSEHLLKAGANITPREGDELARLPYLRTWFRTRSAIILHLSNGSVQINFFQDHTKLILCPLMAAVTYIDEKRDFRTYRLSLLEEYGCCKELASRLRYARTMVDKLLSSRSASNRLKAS
Method: as §1, §2, §3, §4

T1 sequence (P49841 whole entry): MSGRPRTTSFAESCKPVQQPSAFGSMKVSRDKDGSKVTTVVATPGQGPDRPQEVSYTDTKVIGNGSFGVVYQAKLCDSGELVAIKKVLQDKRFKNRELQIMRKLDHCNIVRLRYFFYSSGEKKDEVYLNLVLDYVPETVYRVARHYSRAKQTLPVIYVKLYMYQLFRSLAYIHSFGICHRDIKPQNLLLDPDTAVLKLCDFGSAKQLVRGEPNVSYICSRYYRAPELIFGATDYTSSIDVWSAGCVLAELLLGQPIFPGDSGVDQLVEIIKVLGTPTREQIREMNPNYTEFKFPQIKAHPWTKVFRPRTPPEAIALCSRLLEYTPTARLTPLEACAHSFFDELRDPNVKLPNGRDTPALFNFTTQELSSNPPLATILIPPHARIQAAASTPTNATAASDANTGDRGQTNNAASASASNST
CDK9, sequence (P50750 whole entry): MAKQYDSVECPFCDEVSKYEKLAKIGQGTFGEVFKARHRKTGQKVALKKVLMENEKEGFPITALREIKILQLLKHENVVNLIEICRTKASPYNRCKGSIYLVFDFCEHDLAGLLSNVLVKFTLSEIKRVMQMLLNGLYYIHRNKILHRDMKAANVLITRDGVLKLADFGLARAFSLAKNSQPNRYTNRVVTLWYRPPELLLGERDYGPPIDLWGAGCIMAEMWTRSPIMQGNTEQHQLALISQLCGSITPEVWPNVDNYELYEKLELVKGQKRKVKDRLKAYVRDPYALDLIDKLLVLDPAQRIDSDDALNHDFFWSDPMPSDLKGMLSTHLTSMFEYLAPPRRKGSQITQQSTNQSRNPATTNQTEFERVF
CDK9, sequence (O60563 whole entry partner): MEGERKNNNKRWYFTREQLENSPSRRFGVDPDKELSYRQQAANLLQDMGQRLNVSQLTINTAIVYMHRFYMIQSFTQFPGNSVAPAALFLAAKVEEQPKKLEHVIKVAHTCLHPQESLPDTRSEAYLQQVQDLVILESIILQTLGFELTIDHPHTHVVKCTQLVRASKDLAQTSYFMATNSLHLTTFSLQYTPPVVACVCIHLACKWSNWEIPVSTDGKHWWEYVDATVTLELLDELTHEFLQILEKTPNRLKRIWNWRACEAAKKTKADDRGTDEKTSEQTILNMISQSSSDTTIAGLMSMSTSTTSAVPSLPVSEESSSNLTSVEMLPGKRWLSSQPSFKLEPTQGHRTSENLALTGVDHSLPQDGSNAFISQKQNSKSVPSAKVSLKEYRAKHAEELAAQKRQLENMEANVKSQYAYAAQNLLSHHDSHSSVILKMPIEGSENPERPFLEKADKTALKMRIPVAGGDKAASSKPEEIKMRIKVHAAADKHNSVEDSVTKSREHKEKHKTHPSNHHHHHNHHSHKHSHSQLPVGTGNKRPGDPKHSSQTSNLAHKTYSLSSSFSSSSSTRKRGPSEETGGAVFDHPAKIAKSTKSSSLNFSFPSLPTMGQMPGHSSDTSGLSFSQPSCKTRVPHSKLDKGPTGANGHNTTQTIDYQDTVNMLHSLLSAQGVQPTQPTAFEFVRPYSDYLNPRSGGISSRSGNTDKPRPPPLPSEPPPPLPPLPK
LIMK1, sequence (P53667 whole entry): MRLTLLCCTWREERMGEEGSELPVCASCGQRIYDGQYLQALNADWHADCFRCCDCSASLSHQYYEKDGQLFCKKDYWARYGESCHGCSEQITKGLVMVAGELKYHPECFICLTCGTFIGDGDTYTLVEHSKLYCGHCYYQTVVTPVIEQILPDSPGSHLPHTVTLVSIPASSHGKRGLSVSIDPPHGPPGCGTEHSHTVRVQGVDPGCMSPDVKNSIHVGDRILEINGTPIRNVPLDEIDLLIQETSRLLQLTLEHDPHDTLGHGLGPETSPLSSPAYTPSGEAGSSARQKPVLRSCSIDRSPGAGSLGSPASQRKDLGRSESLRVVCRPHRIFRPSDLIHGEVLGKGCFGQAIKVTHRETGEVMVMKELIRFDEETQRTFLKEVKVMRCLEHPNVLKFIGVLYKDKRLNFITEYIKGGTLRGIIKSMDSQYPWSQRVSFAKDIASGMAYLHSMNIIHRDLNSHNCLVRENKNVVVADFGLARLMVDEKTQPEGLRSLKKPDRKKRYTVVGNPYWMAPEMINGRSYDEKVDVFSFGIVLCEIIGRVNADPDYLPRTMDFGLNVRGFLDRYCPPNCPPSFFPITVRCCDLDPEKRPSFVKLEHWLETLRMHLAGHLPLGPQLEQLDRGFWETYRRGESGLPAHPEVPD
T2 sequence (P49840 whole entry): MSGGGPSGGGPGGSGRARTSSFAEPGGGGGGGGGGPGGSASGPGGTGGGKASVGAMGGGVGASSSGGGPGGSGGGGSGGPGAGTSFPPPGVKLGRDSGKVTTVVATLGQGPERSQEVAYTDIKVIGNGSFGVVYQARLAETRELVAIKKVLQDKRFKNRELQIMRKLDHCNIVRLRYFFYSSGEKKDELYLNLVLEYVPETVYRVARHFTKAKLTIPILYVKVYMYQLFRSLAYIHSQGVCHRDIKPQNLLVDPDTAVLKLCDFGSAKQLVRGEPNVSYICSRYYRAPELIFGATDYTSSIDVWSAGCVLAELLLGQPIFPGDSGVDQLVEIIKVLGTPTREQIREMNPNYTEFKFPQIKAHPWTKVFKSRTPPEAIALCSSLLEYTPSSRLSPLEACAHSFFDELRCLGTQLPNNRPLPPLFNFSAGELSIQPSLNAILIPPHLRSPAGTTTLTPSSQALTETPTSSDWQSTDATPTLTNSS
Erk5, sequence (Q13164 whole entry): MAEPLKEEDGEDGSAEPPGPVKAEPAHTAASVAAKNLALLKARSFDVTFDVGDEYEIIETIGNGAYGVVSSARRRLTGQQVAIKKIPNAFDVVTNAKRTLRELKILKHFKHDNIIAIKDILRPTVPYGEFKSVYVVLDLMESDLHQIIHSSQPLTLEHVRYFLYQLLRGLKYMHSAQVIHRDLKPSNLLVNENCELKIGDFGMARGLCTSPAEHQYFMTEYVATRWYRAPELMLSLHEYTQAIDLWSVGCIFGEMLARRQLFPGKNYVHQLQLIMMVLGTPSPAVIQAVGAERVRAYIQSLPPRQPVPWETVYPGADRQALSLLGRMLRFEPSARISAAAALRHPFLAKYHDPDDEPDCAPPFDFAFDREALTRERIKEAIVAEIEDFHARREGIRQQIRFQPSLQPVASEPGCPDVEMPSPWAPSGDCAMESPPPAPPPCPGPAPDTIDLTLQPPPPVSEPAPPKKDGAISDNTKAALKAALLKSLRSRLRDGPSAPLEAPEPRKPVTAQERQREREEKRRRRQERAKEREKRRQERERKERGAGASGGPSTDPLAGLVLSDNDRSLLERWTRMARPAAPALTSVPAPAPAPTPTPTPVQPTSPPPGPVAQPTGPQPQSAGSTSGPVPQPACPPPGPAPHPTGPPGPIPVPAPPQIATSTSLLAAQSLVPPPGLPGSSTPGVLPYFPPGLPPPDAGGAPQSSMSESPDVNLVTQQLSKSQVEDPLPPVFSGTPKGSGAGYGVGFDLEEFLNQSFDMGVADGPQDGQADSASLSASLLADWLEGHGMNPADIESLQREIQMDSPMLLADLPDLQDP
CDK5, sequence (Q00535 whole entry): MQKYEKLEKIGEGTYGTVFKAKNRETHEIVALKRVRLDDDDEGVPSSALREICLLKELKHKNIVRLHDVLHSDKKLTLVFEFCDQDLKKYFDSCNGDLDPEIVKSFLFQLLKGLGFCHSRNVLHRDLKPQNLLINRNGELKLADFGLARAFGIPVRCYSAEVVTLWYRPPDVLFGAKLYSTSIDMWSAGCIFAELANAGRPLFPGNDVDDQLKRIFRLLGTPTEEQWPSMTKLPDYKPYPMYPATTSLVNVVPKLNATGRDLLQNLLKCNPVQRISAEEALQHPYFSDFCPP
CDK5, sequence (Q15078 99-307 partner): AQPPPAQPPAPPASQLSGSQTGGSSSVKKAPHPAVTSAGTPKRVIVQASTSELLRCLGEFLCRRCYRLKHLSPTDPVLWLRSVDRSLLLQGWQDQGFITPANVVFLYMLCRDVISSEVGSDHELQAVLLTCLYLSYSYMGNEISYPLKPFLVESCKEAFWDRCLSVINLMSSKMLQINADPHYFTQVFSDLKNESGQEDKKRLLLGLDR

Structure (SMILES): COc1ccccc1[C@@H]1C2=C(CC(C)(C)CC2=O)Nc2n[nH]c(C(F)(F)F)c21 [Compound 54, (R)-4-(2-methoxyphenyl)-7,7-dimethyl-3-(trifluoromethyl)-6,7,8,9-tetrahydro-2H-pyrazolo[3,4-b]quinolin-5(4H)-one]
- IC50 [1]: 1.03 µM
- EC50 ([2]; Homo sapiens, U2OS, read-out: beta-Catenin Translocation (μM)): 5.28 µM
- EC50 ([2]; read-out: beta-Catenin translocation EC50): 6.97 µM
- inhibition at 10 µM (CDK2/CycA2): 78.7%
- inhibition at 10 µM (CDK2/CycE1): 73.5%
- % of the kinome (311 kinases) inhibited (panel of 311 kinases): 2.6%
- Plasma protein binding % bound, human plasma [3]: 93%
- fraction unbound at 5 h, 5 µM ([3]; human, pH 7.4, read-out: Plasma protein binding % bound, human plasma (converted)): 0.07
- stability in glutathione (GSH), % remaining (GSH stability): 99%
- stability in PBS, % still present (PBS stability): more than 95%
- IC50 (GSK3β [4]): 20 nM
- IC50 (GSK3α [5]): < 100 nM
- IC50 (GSK3β [6]): < 100 nM
- EC50 [7]: 5.35 µM
- Plasma stability % remaining (in mice) [8]: 99%
- Microsomal Stability (M:) [9]: M: 0%
- EC50 ([10]; read-out: TCF/LEF (μM)): 4.8 µM
- EC50 ([10]; read-out: TCF/LEF EC50 (μM)): 5 µM
- solubility at 24 h (physchem): 85 µM (≈ 33.3 µg/mL)
- fraction unbound at 5 h, 5 µM (in vitro): 0.09
- IC50 (GSK3β [11]): < 0.1 µM
- IC50 (GSK3β [11]; IC50 ADP Glo GSK3β (μM)): 0.02 µM
- IC50 (GSK3β [11]; IC50 against GSK3β at 7 μM ATP): 0.024 µM
- IC50 (GSK3β [11]; IC50 against GSK3β at 100 μM ATP): 0.143 µM
- IC50 (GSK3β [11]; Target IC50 (nM), GSK3β): 0.024 µM
- IC50 (GSK3α [12]): 13 nM
- IC50 (GSK3β [13]): 12 nM
- cellular toxicity in SH-SY5Y cells (SH-SY5Y cells): no cellular toxicity

- % Inhibition at 10 μM, CDK5 (CDK5): 51.2%
- % Inhibition at 10 μM, CDK9 (CDK9): 88.1%
- % Inhibition at 10 μM, CDK9 (CDK9; listed as CHIR 99021): greater than 50%
- % Inhibition at 10 μM, Erk5 (Erk5): 61.3%
- % Inhibition at 10 μM, LIMK1 (LIMK1): 78.9%
- % Inhibition at 10 μM, LIMK1 (LIMK1; listed as CHIR 99021): greater than 50%
- % Inhibition at 10 μM, PLK1 (PLK1): 59.2%
- Microsomal Stability (M:) [9]: M: 4%
Structure (SMILES): Cc1c[nH]c(-c2cnc(NCCNc3ccc(C#N)cn3)nc2-c2ccc(Cl)cc2Cl)n1 [CHIR99021]
- number of kinases inhibited greater than 50% at 10 μM (panel of 311 kinases; 10 μM, 311 kinases): 21 kinases
- EC50 ([10]; read-out: TCF/LEF (μM)): 6 µM

Reference: US9096594B2, “Kinase inhibitors and methods of use thereof” (priority 2012, dated 2015)
